Laboratory results as given in US8617906B2, “Identification and screening of triptolide target molecules” (priority 2004, dated 2013).

Tests used:
[1] = molecular target: T1, Protein Disulfide Isomerase (PG775) (Homo sapiens, UniProt P07237); test: Isolation of proteins binding 3H-triptolide in Jurkat cells; settings: 3H-labeled compound incubated with Jurkat cells
T1 construct: endogenous in cells; host or cells: Jurkat
Procedure: (§1) Triptolide target molecules were isolated and identified by purification and identification of molecules that bind ^3H-triptolide. Jurkat cells from expanding cultures were labeled with ^3H-triptolide by cultivation at 37° C. with 5% CO2 for a period of time between a few hours and overnight (usually 6-7 hours) and harvested by centrifugation and washing in ice-cold phosphate buffered saline. The cells (usually 1-3×10^6/ml) were generally labeled with ^3H-triptolide to a final concentration of 35 nM (100 μCi/200 ml of medium). Collected cell pellets were pooled, and the cells were either extracted and subjected to separation and purification at that time, or were frozen and stored at −20° C. as pellets for extraction and investigation at a later time.
(§2) The cells were extracted with M-per buffer (Pierce) and homogenized in presence of a protease inhibitor cocktail, sometimes including other reagents such as deoxyribonuclease (DNase). […] When the extracts components were found not to be sufficiently purified, enriched or reduced in number, 2D gel electrophoresis was employed, followed by fluorography for ^3H-associated radioactivity detection, and MALDI/MS of the corresponding peptides (after proteolysis) and peptide fingerprinting. […]

[2] = molecular target: T2, Thioredoxin Reductase (PG774) (Homo sapiens, UniProt Q16881); test: as above; settings: 3H-labeled compound incubated with Jurkat cells
T2 construct: endogenous in cells; host or cells: Jurkat
T2 sequence (Q16881 151-649 limits assumed): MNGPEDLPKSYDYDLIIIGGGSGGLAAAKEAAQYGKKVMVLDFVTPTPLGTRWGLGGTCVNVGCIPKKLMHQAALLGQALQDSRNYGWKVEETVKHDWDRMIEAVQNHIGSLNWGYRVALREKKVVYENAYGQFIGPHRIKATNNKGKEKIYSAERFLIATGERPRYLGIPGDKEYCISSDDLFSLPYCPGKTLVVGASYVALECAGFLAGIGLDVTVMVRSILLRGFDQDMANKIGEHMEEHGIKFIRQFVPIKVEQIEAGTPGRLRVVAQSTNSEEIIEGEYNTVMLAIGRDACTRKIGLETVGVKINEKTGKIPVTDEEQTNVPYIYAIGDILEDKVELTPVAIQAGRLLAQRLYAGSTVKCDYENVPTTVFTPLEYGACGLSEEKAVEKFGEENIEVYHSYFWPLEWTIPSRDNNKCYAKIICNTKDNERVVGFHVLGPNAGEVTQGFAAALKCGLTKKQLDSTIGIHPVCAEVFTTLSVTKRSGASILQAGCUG
Procedure: as §1, §2

[3] = tested on: Phosphatidyl Inositol 3 Kinase—Class II (PG776); test: as above; design: species or system human; settings: 3H-labeled Jurkat cell extract
Procedure: as §1, §2

[4] = molecular target: T3, hypothetical protein FLJ20297 (PG777) (Homo sapiens, UniProt Q9NXE4); test: as above; settings: 3H-labeled Jurkat cell extract
T3 construct: endogenous in cells; host or cells: Jurkat
T3 sequence (Q9NXE4 whole entry): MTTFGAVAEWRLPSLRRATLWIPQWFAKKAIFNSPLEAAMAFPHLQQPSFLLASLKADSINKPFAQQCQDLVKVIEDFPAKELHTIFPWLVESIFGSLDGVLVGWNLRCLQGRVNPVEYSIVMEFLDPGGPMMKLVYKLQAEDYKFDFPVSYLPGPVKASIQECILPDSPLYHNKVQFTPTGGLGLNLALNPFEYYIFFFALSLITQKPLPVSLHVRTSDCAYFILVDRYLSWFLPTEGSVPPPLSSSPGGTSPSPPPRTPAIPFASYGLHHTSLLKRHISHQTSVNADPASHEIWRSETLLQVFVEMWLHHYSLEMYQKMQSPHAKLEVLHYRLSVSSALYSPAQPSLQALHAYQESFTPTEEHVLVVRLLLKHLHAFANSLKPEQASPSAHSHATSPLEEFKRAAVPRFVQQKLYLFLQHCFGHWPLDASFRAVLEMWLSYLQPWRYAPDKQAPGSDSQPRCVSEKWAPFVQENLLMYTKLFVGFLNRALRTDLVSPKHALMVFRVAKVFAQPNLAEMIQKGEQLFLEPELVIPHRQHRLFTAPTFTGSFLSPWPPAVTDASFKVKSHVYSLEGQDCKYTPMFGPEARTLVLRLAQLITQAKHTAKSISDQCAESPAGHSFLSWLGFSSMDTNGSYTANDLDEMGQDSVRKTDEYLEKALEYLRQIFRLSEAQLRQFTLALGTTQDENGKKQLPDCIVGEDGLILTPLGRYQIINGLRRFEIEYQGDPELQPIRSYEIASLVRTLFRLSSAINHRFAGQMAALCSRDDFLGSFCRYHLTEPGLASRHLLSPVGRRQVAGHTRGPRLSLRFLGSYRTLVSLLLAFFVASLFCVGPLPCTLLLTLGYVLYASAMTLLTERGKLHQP
Procedure: as §1, §2

[5] = molecular target: T4, Human Serine/Threonine Protein Phosphatase 2A 130 KDa regulatory subunit, PP2A (PG789) (Homo sapiens, UniProt Q06190); test: as above; settings: 3H-labeled Jurkat cell extract
T4 construct: endogenous in cells; host or cells: Jurkat
T4 sequence (Q06190 whole entry): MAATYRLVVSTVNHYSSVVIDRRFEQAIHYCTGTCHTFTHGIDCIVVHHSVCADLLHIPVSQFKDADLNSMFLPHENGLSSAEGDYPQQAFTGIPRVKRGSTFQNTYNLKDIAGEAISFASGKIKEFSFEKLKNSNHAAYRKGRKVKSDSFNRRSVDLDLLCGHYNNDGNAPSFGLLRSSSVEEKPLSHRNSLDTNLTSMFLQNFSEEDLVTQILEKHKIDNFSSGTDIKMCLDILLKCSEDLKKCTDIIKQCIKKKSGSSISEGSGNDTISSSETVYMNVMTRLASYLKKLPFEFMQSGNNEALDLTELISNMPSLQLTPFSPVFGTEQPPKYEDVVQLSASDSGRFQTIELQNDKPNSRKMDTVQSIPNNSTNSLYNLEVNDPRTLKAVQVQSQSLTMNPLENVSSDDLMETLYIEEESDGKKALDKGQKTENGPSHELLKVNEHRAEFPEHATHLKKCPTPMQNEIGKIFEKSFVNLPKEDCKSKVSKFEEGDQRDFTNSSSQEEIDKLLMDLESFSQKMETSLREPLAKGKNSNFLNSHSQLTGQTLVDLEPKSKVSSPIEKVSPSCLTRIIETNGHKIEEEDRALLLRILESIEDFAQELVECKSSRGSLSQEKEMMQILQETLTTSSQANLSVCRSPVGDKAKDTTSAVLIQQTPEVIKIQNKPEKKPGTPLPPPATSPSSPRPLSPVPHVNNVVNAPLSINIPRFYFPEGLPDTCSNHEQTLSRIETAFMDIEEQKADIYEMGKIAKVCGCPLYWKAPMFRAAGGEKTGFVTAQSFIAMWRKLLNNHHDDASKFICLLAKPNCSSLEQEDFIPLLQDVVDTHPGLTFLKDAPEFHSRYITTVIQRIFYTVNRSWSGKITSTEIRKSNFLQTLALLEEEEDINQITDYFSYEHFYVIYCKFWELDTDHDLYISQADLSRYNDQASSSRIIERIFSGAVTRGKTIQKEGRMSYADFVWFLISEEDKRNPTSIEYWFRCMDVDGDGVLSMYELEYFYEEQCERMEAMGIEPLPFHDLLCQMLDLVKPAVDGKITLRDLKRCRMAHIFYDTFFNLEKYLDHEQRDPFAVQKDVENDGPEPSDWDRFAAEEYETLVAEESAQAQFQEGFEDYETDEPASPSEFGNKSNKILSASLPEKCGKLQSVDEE
Procedure: as §1, §2

[6] = molecular target: T5, Hypothetical Protein—GI 7705346 (PG790) (Homo sapiens, UniProt Q9Y4R8); test: as above; settings: 3H-labeled Jurkat cell extract
T5 construct: Jurkat cells from expanding cultures were labeled with; endogenous in cells; host or cells: Jurkat
T5 sequence (Q9Y4R8 whole entry): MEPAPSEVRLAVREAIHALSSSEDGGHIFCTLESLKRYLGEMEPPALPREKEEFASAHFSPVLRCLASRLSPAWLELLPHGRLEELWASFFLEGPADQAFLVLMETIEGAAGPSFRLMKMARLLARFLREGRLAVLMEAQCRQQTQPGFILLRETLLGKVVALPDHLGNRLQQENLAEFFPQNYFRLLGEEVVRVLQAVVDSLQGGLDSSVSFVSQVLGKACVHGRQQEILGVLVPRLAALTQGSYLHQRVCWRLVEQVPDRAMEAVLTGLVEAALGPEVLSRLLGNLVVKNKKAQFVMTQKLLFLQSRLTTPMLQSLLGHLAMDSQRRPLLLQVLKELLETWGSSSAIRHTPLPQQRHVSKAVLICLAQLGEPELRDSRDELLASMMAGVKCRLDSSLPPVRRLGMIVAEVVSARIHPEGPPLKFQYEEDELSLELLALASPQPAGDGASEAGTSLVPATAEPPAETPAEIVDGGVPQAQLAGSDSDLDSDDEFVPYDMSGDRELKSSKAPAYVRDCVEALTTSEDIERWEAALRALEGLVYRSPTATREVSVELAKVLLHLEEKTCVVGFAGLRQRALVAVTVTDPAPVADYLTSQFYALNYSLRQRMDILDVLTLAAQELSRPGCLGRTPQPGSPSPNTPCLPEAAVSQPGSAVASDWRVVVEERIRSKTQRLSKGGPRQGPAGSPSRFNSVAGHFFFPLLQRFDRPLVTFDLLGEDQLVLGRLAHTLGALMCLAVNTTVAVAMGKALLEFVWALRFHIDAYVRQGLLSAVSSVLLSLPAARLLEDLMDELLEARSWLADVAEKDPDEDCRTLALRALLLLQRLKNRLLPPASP
Procedure: as §1, §2

IL-2 = settings: cited from earlier work
NF-κB = settings: cited from earlier work
microglia = settings: cited from earlier work

T1 sequence (P07237 18-508): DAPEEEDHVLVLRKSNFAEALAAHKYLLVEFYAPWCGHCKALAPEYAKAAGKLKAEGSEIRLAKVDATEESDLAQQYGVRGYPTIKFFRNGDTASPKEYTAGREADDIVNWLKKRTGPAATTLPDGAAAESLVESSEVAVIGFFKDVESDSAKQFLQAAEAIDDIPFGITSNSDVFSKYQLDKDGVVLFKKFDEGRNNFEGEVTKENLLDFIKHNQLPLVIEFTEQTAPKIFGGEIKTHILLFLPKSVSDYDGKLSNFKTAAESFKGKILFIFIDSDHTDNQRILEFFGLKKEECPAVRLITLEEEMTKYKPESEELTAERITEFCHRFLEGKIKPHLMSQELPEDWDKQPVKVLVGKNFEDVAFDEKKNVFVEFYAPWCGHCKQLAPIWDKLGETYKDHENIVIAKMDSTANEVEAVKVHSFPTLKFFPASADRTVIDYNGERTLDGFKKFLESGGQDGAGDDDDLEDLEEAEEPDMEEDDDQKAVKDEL

With `CC(C)[C@]12O[C@H]1[C@@H]1O[C@]13[C@]1(O[C@H]1C[C@H]1C4=C(CC[C@@]13C)C(=O)OC4)[C@@H]2O` [triptolide] the “3H-associated protein identified as triptolide target: Protein Disulfide Isomerase” value [1] was “identified”, the “3H-associated protein identified as triptolide target: Thioredoxin Reductase” value [2] was “identified” and the “3H-associated protein identified as triptolide target: PI 3 Kinase Class II” value [3] was “identification”. The “3H-associated protein identified as triptolide target: FLJ20297” value [4] was “identification”, the “3H-associated protein identified as triptolide target: PP2A 130 KDa regulatory subunit” value [5] was “identified” and the “3H-associated protein identified as triptolide target: GI 7705346” value [6] was “identified”. For the same compound, the “inhibition of IL-2” value (IL-2) was “inhibition of IL-2”, the NF-κB activation (NF-κB) was “inhibit NF-κB activation” and the “LPS-activated microglial activity (nitrite accumulation, TNF-α and IL-1β release)” value (microglia) was “powerful inhibitory influence”.
